Measurements taken from patent US12139458B2, “(2,5-dioxopyrrolidin-1-yl)(phenyl)-acetamide derivatives and their use in the treatment of neurological diseases” (UNIWERSYTET JAGIELLONSKI, priority 2019, dated 2024).

Columns and labels:
[1] = tested on: male Swiss albino mice (CD-1); assay: Psychomotor seizure test 6 Hz (44 mA); format: in vivo; conditions: 0.5 h, mice; for 6 Hz (44 mA): number of mice protected/number of mice tested: screening, 100 mg/kg i.p.
Protocol: (§1) All procedures were carried out in accordance with applicable Polish and international guidelines on the ethics of animal testing, after obtaining appropriate institutional approval. The substances were administered intraperitoneally (i.p.), in 1% aqueous solution of Tween, as single injections with a volume of 10 ml/kg, 30 minutes before the given test. Screening was performed on groups consisted of 4 mice. […] All tests were carried out based on the procedures described in the specialist literature.
In the 6 Hz test, seizures were induced by an electric stimulus of 32 mA and/or 44 mA and a frequency of 6 pulses per second. […] Before starting the test, the eye surface was gently moistened with a solution of local anesthetic (1% lidocaine solution). The study was conducted 30 minutes after intraperitoneal administration of the compounds at various doses. An electrical pulse was delivered continuously for a period of 3 seconds, followed by observation of the animal for a period of 10 seconds. During this time, immobility or stun associated with rearing, forelimb clonus, twitching of the vibrissae and Straub's tail were observed. These symptoms persist throughout the observation period, indicating the occurrence of psychomotor seizures in mice.
(§2) To perform a statistical evaluation of the results, one-way ANOVA variance analysis and Dunnett's post hoc test (multiple comparison test) were used. The value at the significance level p<0.05 was considered statistically significant.

[2] = tested on: male Swiss albino mice (CD-1); assay: Subcutaneous pentylenetetrazole seizure test (scPTZ); format: in vivo; conditions: 0.5 h, mice; for scPTZ: number of mice protected/number of mice tested: screening, 100 mg/kg i.p.
In short: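 Compounds given i.p. in 1% aqueous Tween 30 min before s.c. PTZ at 100 mg/kg. Mice observed 30 min for clonic seizures (whole-body clonus ≥3 s with loss of righting reflex); absence counted as protection. ED50 from 3-4 groups of 6 mice; screening in groups of 4.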

[3] = Metabolic stability in human liver microsomes; format: in vitro ADME
Protocol: Metabolic stability. The metabolic stability of compound 6 was evaluated using human liver microsomes (HLMs). Internal clearance values CLint were calculated by monitoring changes in compound concentration in the presence of microsomes per unit of time, according to the procedure proposed by Obach R. S. (Obach, R. S. Drug Metab. Dispos. 1999, 27, 1350-1359).
Metabolic stability tests—methodology. Metabolic stability studies for compound 6 were performed using HLMs (Promega, Madison, WI, USA). For this purpose, 10 μL of compound 6 at a concentration of 1000 μM was diluted with 132 μL with tris-HCl buffer (100 mM, pH 7.4), followed by the addition of 8 μL of appropriate microsomes. The reaction mixture was preincubated at 37° C. for 5 minutes, followed by the addition of 50 μL of NADPH Regeneration System, supplied by Promega (Madison, WI, USA). After mixing, the whole mixture was incubated at 37° C. for 120 minutes. To complete the reaction, 200 μL of cold methanol was added to the tubes and centrifuged. The supernatant was subjected to UPLC/MS analysis, including fragmentation analysis. Four mixtures of 6 with HLMs were prepared to determine the internal clearance CLint. Each of these reactions was completed at a different time point, after 5, 15, 30 and 45 min, by the addition of cold methanol containing 50 μM internal standard. Then, according to literature guidelines (Obach, R. S. Drug Metab. Dispos. 1999, 27, 1350-1359), based on the plot of the relationship between the height of the peak from 6 and the height of the internal standard, the regression equation was determined and the reaction rate constant k was calculated. Then the constant k was substituted to equation (1).
The calculated t1/2 value was then substituted into equation (2): […]

[4] = tested on: male Swiss albino mice (CD-1); assay: Psychomotor seizure test 6 Hz (32 mA); format: in vivo; conditions: 0.5 h, mice; for ED50 6 Hz (32 mA): i.p.
In short: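 Compounds given i.p. in 1% aqueous Tween 30 min before a 3 s ocular stimulus (32 mA and/or 44 mA, 6 pulses/s) after lidocaine; mice normal within 10 s counted protected. ED50 from 3-4 groups of 6 mice; screening on groups of 4.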

[5] = tested on: male Swiss albino mice (CD-1); assay: Maximal electroshock seizure test (MES); format: in vivo; conditions: 0.5 h, mice
In short: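 Male CD-1 mice (18–26 g) received compound i.p. in 1% aqueous Tween 30 min before a 0.2 s, 500 V, 25 mA auricular electroshock.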

[6] = Rotarod test (motor coordination); format: in vivo; conditions: male, Swiss albino (CD-1), mouse, in vivo, ip, mice
Protocol: as §1
(§3) Mice were trained the day before the actual experiment. They were placed individually on a 2 cm diameter rod rotating at 10 revolutions per minute (rpm). During each training session, the animals remained on the rod for 3 minutes. The experiment was carried out 30 minutes after administration of the compounds. Motor coordination was tested at the speed of the rotating bar: 10 rpm during 60 seconds. Motor impairments were defined as the inability to remain on the rotating rod for 1 min.
as §2

[7] = tested on: male Swiss albino mice (CD-1); assay: Rotarod test (motor coordination); format: in vivo; conditions: i.p., 0.5 h
Protocol: as §1, §3, §2

[8] = tested on: male white Swiss mice (CD-1); assay: Capsaicin-induced pain model; format: in vivo; conditions: 200 mg/kg i.p.
Protocol: (§4) The tests were carried out using male white Swiss mice (CD-1) weighing 18-25 g. All procedures were carried out in accordance with Polish and international guidelines on ethics of animal testing, after obtaining appropriate institutional approval. The study group consisted of 8-10 animals. The tested and reference substances were administered intraperitoneally 30 minutes before given test as suspension in 1% aqueous solution of Tween. All tests/models were carried out based on the procedures described in the specialist literature: the formalin test (Beirith, A.; Santos, A. R.; Calixto, J. B.; Rodrigues, A. L.; Creczynski-Pasa, T. B. Eur. J. Pharmacol. 1998, 345, 233-245), the model of capsaicin-induced pain (Mogilski, S.; Kubacka, M.; Redzicka, A.; Kazek, G.; Dudek, M.; Malinka, W.; Filipek, B. Pharmacol. Biochem. Behav. 2015, 133, 99-110), the model of oxaliplatin-induced neuropathic pain—von Frey test (Sałat, K.; Cios, A.; Wyska, E.; Satat, R.; Mogilski, S.; Filipek, B.; Wigȩkowski, K.; Malawska, B. Pharmacol. Biochem. Behav. 2014, 122, 173-181).
This test assesses the time of licking and/or biting the hind paw into which mice were injected subplantarly with capsaicin in an amount of 1.6 μg, dissolved in 20 μl of a mixture containing 0.9% saline and ethanol (5% of the final volume). Observation was carried out […] after capsaicin administration. Test compounds were administered intraperitoneally 30 minutes before administration of capsaicin. Inhibition of nociceptive reaction—shortening the time of licking and biting the paw was the measure of antinociceptive activity of the compound tested.
Valproic acid (VPA) was the reference compound in this test. […] Compound 6 was administered at 20 mg/kg, 30 mg/kg and 40 mg/kg. Test compounds were administered as a suspension in 1.0% Tween 80 solution. The control group consisted of mice treated with vehicle alone (1% Tween 80 solution). The nociceptive reaction time in this group was 43.29±3.21 seconds.

[9] = tested on: male white Swiss mice (CD-1); assay: Formalin test (analgesic activity); format: in vivo
Protocol: as §4
The pain was induced by the subplantar injection of 20 μL of 2.5% formalin solution into the mice right hind paw. The animals were placed in separate, transparent observation chambers for a period of 30 minutes. The measured value was the total licking and biting time of the paw to which the formalin solution was injected. The nociceptive reaction time was calculated for the first 5 minutes after formalin injection (first phase of the test—acute pain) and in the 15-20, 20-25 and 25-30 minutes time intervals after its administration (second phase of the test—inflammatory pain). The observed inhibition of nociceptive reaction—reduction of paw licking and biting time, was interpreted as the analgesic effect of the compound tested. Based on the results obtained, the ED50 dose was calculated (dose that reduces the nociceptive reaction time by 50%). […] Compound 6 was administered at doses of 10 mg/kg, 20 mg/kg and 30 mg/kg.

[10] = tested on: male white Swiss mice (CD-1); assay: Oxaliplatin-induced neuropathic pain, von Frey test; format: in vivo; conditions: baseline 2.62±0.06 g, after OXPT 1.78±0.04 g
Protocol: as §4
Oxaliplatin (OXPT) was dissolved in a 5% glucose solution, followed by intraperitoneal administration to mice. A single dose of 10 mg/kg was used. Tactile and thermal (sensation of low temperature) allodynia associated with oxaliplatin-induced neuropathy are characterized by two phases. The early phase is acute and develops soon after administration of the OXPT, while the symptoms of the later (chronic) phase (associated with neurons damage), develops after a few days. Behavioral tests in mice with OXPT-induced neuropathy were carried out 7 days after its administration, i.e. in the late phase of neuropathy.
The influence of compounds tested on tactile allodynia was determined in the von Frey test. The animals were placed individually in cages with a reticulated bottom, 60 minutes before the beginning of the experiment, in order to adapt to the new environment. An electronic Von Frey apparatus (Electronic Von Frey, Bioseb, France) was used to assess the pain threshold for mechanical stimuli. The von Frey's fiber was applied to the underside of the right mouse paw with increasing pressure. […] The measurement was performed 3 times for each mouse, with at least 30 seconds between the measurements, then the results obtained were averaged. The entire study was performed 3 times: before OXPT administration to determine the baseline pain threshold; 7 days after administration of OXPT, and before administration of test compounds, to assess developing neuropathy by setting a new pain threshold; 30 minutes after administration of the compounds to determine their influence developed neuropathy.
Compound 6 was administered at doses of 10, 20 and 30 mg/kg.

O=C([C@@H](c1ccccc1)N1C(=O)CCC1=O)N1CCN(c2cccc(C(F)(F)F)c2)CC1 [(R)-6, (R)-1-(2-Oxo-1-phenyl-2-(4-(3-(trifluoromethyl)phenyl)piperazin-1-yl)ethyl) pyrrolidine-2,5-dione]
ED50 ([1]; Mus musculus, ip): 115 mg/kg
6 Hz (44 mA): number of mice protected/number of mice tested [1]: ¾
ED50 ([2]; Mus musculus, ip): 54.8 mg/kg
scPTZ: number of mice protected/number of mice tested [2]: ¾
metabolites found by UPLC after incubation with HLMs ([3]; 120 min incubation, UPLC/MS): two metabolites
CLint scaled at 50 µM ([3]; human, human liver microsomes, pH 7.4, incubation with HLMs, read-out: internal clearance CLint): 2.4 mL/min/kg
ED50 ([4]; Mus musculus, ip): 39.1 mg/kg
responders at 100 mg/kg ([4]; Mus musculus, ip, screening, 100 mg/kg i.p., read-out: 6 Hz (32 mA): number of mice protected/number of mice tested (converted)): 100%
ED50 ([5]; Mus musculus, ip): 36 mg/kg
responders at 100 mg/kg ([5]; Mus musculus, ip, screening, 100 mg/kg i.p., read-out: MES: number of mice protected/number of mice tested (converted)): 100%
TD50 at 0.5 h [6]: 468 mg/kg

O=C(C(c1ccccc1)N1C(=O)CCC1=O)N1CCN(c2cccc(SC(F)(F)F)c2)CC1 (centres unmarked) [Compound 12]
ED50 6 Hz (44 mA) ([1]; i.p.): 57.9 mg/kg
6 Hz (44 mA): number of mice protected/number of mice tested [1]: ¾
ED50 scPTZ ([2]; i.p.): >100 mg/kg
scPTZ: number of mice protected/number of mice tested [2]: 4/4
ED50 6 Hz (32 mA) [4]: 15.8 mg/kg
6 Hz (32 mA): number of mice protected/number of mice tested ([4]; screening, 100 mg/kg i.p.): 4/4
ED50 MES ([5]; i.p.): 36.2 mg/kg
MES: number of mice protected/number of mice tested ([5]; screening, 100 mg/kg i.p.): 4/4
TD50 [7]: 150.0 mg/kg

CCCC(CCC)C(=O)O [VPA, valproic acid, reference compound]
analgesic activity, capsaicin test [8]: 42.25%
nociceptive reaction time, capsaicin test ([8]; control 43.29±3.21 seconds): 25.00 ± 4.57 s
ED50 ([4]; Mus musculus, ip): 131 mg/kg
ED50 6 Hz (32 mA) [4]: 130.6 mg/kg
ED50 ([9]; Mus musculus, ip, phase II (inflammatory pain, 15-30 min), i.p., mice, read-out: ED50 in the second phase of the formalin test): 133 mg/kg
analgesic activity in the first phase of the formalin test ([9]; phase I, 100, 150 and 200 mg/kg i.p.): no analgesic activity
pain threshold, von Frey test ([10]; 50 mg/kg i.p.): 2.75 ± 0.06 g
pain threshold, von Frey test ([10]; 100 mg/kg i.p.): 3.18 ± 0.14 g
pain threshold, von Frey test ([10]; 150 mg/kg i.p.): 3.97 ± 0.30 g
